The values below come from article PMC6803667, “Binding site plasticity in viral PPxY Late domain recognition by the third WW domain of human NEDD4” (Scientific Reports, 2019).

As a reminder, the Kd is the concentration at which binding is half-saturated.

In assay [1] the target is T1, hNEDD4-WW3 (Homo sapiens, UniProt P46934).
T1 construct: comprising aminoacids 834–878 (UniProtKB/Swiss-Prot code P46934); GST-His (pETM-30, TEV site) (N, cleaved yes); made in house; host or cells: E. coli BL21/DE3 is printed only for the pETM-11 NMR construct
Particulars: cited from earlier work.

For assay [2], the target named is T1, hNEDD4-WW3. The experiment in a line: biochemical. It counts as binding.
Assay [3] addresses T2, hYAP-WW2 (Homo sapiens, UniProt P46937).
T2 construct: comprising aminoacids 165–209 and 228–271 respectively (UniProtKB/Swiss-Prot code Q7Z574); GST-His (pETM-30, TEV site) (N, cleaved yes); made in house
Format: binding. Particulars: pH 7.

In assay [4] the target is T3, hYAP-WW1 (Homo sapiens, UniProt P46937).
T3 construct: comprising aminoacids 165–209 and 228–271 respectively (UniProtKB/Swiss-Prot code Q7Z574); GST-His (pETM-30, TEV site) (N, cleaved yes); made in house
Format: binding. Particulars: pH 7.

The target in another assay is hNEDD4L-WW3. Particulars: cited from earlier work.
Assay [5] deals with T1, hNEDD4-WW3.
The target of another assay is SU(dx)-WW4. Particulars: cited from earlier work.
The next assay concerns the target rNEDD4-WW2. Particulars: cited from earlier work.
For assay [6], the target named is T3, hYAP-WW1. Particulars: cited from earlier work.
A further assay addresses hITCHY-WW3. Particulars: cited from earlier work.
For assay [7], the target named is T3, hYAP-WW1. The assay can be described thus: biochemical. Format: binding.
Assay [8] addresses T1, hNEDD4-WW3. The assay can be described thus: biochemical. It counts as binding. This is another data set of the same source.
The target in a further assay is dNEDD4-WW3. Particulars: cited from earlier work.
The next assay concerns the target SMURF1-WW2. Particulars: cited from earlier work.
The target in assay [9] is T2, hYAP-WW2. Particulars: cited from earlier work.
Another assay deals with NEDD4L-WW2. Particulars: cited from earlier work.
The target in another assay is SMURF2-WW3. Particulars: cited from earlier work.

Several values for one entry are separate records, joined by “and”; a condition that tells them apart may be missing. Identical values can stand only once. Like-named read-outs stand apart in the source and are kept apart here. Residues, ends and D or L forms follow the SMILES beside them. No end group written: not given here.

T1 sequence (P46934 834-878): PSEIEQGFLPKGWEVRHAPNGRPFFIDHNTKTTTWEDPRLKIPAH
T3 sequence (P46937 165-209): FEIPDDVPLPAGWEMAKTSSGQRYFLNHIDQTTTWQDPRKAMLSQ
T2 sequence (P46937 228-271): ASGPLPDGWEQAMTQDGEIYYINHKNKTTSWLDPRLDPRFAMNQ

For “RPE−5AP−3P−2SY0AEVVT (RPEAPPSYAEVVT) [ARRDC3]”, the Kd in the assay with hNEDD4-WW3 [1] is 3.3 µM and 3 µM.

Take `CC(=O)N[C@@H](CCC(=O)O)C(=O)N[C@@H](Cc1ccc(O)cc1)C(=O)N1CCC[C@H]1C(=O)N1CCC[C@H]1C(=O)N[C@@H](Cc1ccc(O)cc1)C(=O)N1CCC[C@H]1C(=O)N1CCC[C@H]1C(=O)N1CCC[C@H]1C(=O)N1CCC[C@H]1C(=O)N[C@@H](Cc1ccc(O)cc1)C(=O)N1CCC[C@H]1C(=O)N[C@@H](CO)C(=O)NCC(N)=O` [p53bp2] (Ac-EYPPYPPPPYPSG-NH2): at hNEDD4-WW3 [2], the “binding selectivity between hNEDD4-WW3, YAP-WW1 and YAP-WW2” value is “do not distinguish between the three WW domains”; the dissociation constant Kd was 4.1 µM and 5.3 µM and 9.1 µM. Moreover, at hNEDD4-WW3 [2] (pH 7), the ΔCp is −1.59 kJ K^−1 mol^−1 and −1.59 ± 0.01 kJ K^−1 mol^−1. Also, at hYAP-WW2 [3], the ΔHap is -13.6 ± 0.24 kcal/mol.

Consider `CC(=O)N[C@@H](CC(=O)O)C(=O)N[C@@H](CC(C)C)C(=O)N[C@@H](Cc1c[nH]c2ccccc12)C(=O)N[C@@H](CC(C)C)C(=O)N1CCC[C@H]1C(=O)N1CCC[C@H]1C(=O)N1CCC[C@H]1C(=O)N[C@@H](CCC(=O)O)C(=O)N[C@@H](Cc1ccc(O)cc1)C(=O)N[C@H](C(=O)N1CCC[C@H]1C(=O)N[C@@H](CC(C)C)C(N)=O)C(C)C` [Rabies], for which the Kd is 51 ± 1 µM on hNEDD4-WW3 [2] and “n. b” on hYAP-WW2 [3]. Also, the ΔHap was -15.7 ± 0.19 kcal/mol on hNEDD4-WW3 [2] (pH 7) and -15.2 ± 0.22 kcal/mol at hYAP-WW1 [4].

For the compound “RLDLPPYETFEDI [HECT-Cterm, HECT C-terminal peptide of literature complex 2MPT]”, the equilibrium dissociation constant (Kd) on hNEDD4L-WW3 is 4 µM.

`CSCC[C@H](NC(C)=O)C(=O)N[C@@H](CCC(N)=O)C(=O)N[C@@H](Cc1ccc(O)cc1)C(=O)N[C@@H](CC(C)C)C(=O)N[C@@H](CC(N)=O)C(=O)N1CCC[C@H]1C(=O)N1CCC[C@H]1C(=O)N1CCC[C@H]1C(=O)N[C@@H](Cc1ccc(O)cc1)C(=O)N[C@@H](C)C(=O)N[C@@H](CC(=O)O)C(=O)N[C@@H](Cc1c[nH]cn1)C(N)=O` [Marburg] displayed a Kd at hNEDD4-WW3 [2] of 51 ± 1 µM. Besides, the ΔHap at hNEDD4-WW3 [2] (pH 7) is -17.5 ± 0.17 kcal/mol.

Consider “TAPPPAYATLG [αENaC, αENaC PY motif peptide of literature complex 2M30]”, for which, in the assay with hNEDD4-WW3 [1], the Kd is 45 µM and the “ΔH exp (25C)” value is recorded as -58,2 kJ·mol -1. Besides, the ΔH conf at hNEDD4-WW3 [5] is -48,29 kJ·mol -1.

Regarding “NTGAKQPPSYEDCIK [Notch, Notch peptide of literature complex 2JMF]”, the dissociation constant (Kd) on SU(dx)-WW4 is 45 µM.

As for “APLpSPMpSPPGYKLV [CX43-Cter, Cx43 carboxyl terminus peptide of literature complex 2N8T]”, on rNEDD4-WW2, the Kd was 430 µM.

Take `CC(=O)N1CCC[C@H]1C(=O)N1CCC[C@H]1C(=O)N1CCC[C@H]1C(=O)N[C@@H](Cc1ccc(O)cc1)C(=O)N[C@H](C(=O)N[C@@H](CCC(=O)O)C(=O)N1CCC[C@H]1C(=O)N[C@H](C(=O)N[C@@H](C)C(=O)N1CCC[C@H]1C(N)=O)[C@@H](C)O)C(C)C` [HTLV1 ter] (Ac-PPPYVEPTAP-NH2): the ΔHap at hNEDD4-WW3 [2] (pH 7) is -17.7 ± 0.19 kcal/mol. Also, the Kd entry on hYAP-WW2 [3] and at hYAP-WW1 [4] was “n. b” in each case.

Consider RPE−5AP−3P−2SY0AEVVT [ARRDC3], for which the “ΔH exp (25C)” value at hNEDD4-WW3 [1] is -75,4 kJ·mol -1. For the same compound, at hNEDD4-WW3 [5], the ΔH conf is reported as -64,67 kJ·mol -1.

For the compound “PLPPY [peptide of literature complex 1K9R]”, the Kd with hYAP-WW1 [6] is 500 µM.

Consider “GTPPPPYTVG [WBP1, WBP1 peptide of literature complex 1JMQ]”, for which the Kd with hYAP-WW1 [6] was 40 µM.

With “EEPPPPYED [Epstein-Barr, Epstein-Barr peptide of literature complex 2JO9]”, the Kd at hITCHY-WW3 was 52 µM.

On to “GPPPY ({n‑octyl}-GPPPY) [peptide of literature complex 1K9Q]”, for which the dissociation constant (Kd) with hYAP-WW1 [6] is 700 µM.

As for “GSTLPIPGTPPPNYDSL [βENaC, βENaC peptide of literature complex 1I5H]”, the dissociation constant (Kd) with hNEDD4-WW3 [1] is 21 µM.

As to `CC(=O)N1CCC[C@H]1C(=O)N1CCC[C@H]1C(=O)N1CCC[C@H]1C(=O)N[C@@H](Cc1ccc(O)cc1)C(N)=O` [PPPY] (Ac-PPPY-NH2), the values for the Kd at hYAP-WW1 [7], on hYAP-WW2 [3] and on hNEDD4-WW3 [8] were 320 ± 30 µM, “n. b” and 201 µM, respectively. The ΔHap entry on hYAP-WW1 [7] (pH 7) is “^*−39 ± 3 kJ mol^−1”; at hNEDD4-WW3 [8] (pH 7) it was “^*−38 ± 1 kJ mol^−1”.

Consider `CC[C@H](C)[C@H](NC(C)=O)C(=O)N[C@@H](CC(C)C)C(=O)N1CCC[C@H]1C(=O)N[C@H](C(=O)N[C@@H](C)C(=O)N1CCC[C@H]1C(=O)N1CCC[C@H]1C(=O)N[C@@H](CCC(=O)O)C(=O)N[C@@H](Cc1ccc(O)cc1)C(=O)N[C@@H](CCSC)C(=O)N[C@@H](CCC(=O)O)C(=O)N[C@@H](C)C(N)=O)[C@@H](C)O` [Ebola], for which, on hNEDD4-WW3 [5], the “amount by which theoretical enthalpy is smaller than the experimental enthalpy” value was determined as 7.17 kcal/mol and the ΔH conf is recorded as -30,01 kJ·mol -1.

Consider “TGLPSYDEALH [Comm, Comm PY motif peptide of literature complex 2EZ5]”, for which the Kd at dNEDD4-WW3 was 3.1 µM.

For the compound “ELESPPPPYSRYPMD [Smad7, Smad7 peptide […] of literature complexes 2LTY, 2LTX, 2LTZ, 2LTV, 2LTW]”, the dissociation constant Kd is 6.9 µM with hYAP-WW1 [6]; 4.2 µM at SMURF1-WW2; 60 µM with hYAP-WW2 [9]; 4.2 µM on NEDD4L-WW2; 4.5 µM on SMURF2-WW3.

Regarding `CC[C@H](C)[C@H](NC(=O)[C@H](CCC(N)=O)NC(=O)[C@@H]1CCCN1C(=O)[C@H](CC(=O)O)NC(=O)[C@H](CO)NC(C)=O)C(=O)N1CCC[C@H]1C(=O)N1CCC[C@H]1C(=O)N1CCC[C@H]1C(=O)N[C@@H](Cc1ccc(O)cc1)C(=O)N[C@H](C(=O)N[C@@H](CCC(=O)O)C(=O)N1CCC[C@H]1C(N)=O)C(C)C` [HTLV1] (Ac-SDPQIPPPYVEP-NH2), the “ΔΔH HTLV-Ebola” value on hNEDD4-WW3 [2] was −20 kJ/mol^−1. At hNEDD4-WW3 [5], the “amount by which theoretical enthalpy is smaller than the experimental enthalpy” value is 12 kcal/mol and the ΔH conf is -49,97 kJ·mol -1.
